pIC50: −log10 of the molar value. Like-named read-outs stand apart in the source and are kept apart here.
Experiments:
[1] = target: T1, binding of His-XIAP(BIR2)-avi fusion protein to GST-RIPK2 fusion protein (RIPK2/XIAP) (Homo sapiens, UniProt O43353); experiment: RIPK2-XIAP binding competition PPI assay (TR-FRET); settings: RIPK2/XIAP binding competition PPI assay; for Emax: Amax, read-out: PPI Amax bin
T1 construct: made in house; host or cells: baculovirus infected Sf9 cells
Procedure, shortened: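 Compounds (in DMSO, 100-fold stock) incubated 120 min at 23 °C with 1 nM GST-RIPK2 (aa 1-310) and 25 nM His-XIAP(BIR2 aa 152-231)-avi, plus anti-His-XL665 and anti-GST-Tb, in pH 7.5 Tris buffer. Read-out: 665/520 nm emission ratio. Normalized to no-inhibitor (0%) and 50 nM GSK583 (−100%); Amax binned A–D.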

[2] = test system: NF-κB pathway (SEAP) in THP1-Dual cells; experiment: THP-1 Dual cell SEAP assay (L18-MDP stimulated); assay type: cell-based; settings: Homo sapiens, THP1-Dual, read-out: NF-κB THP1 IC50 bin
Procedure, shortened: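 THP1-Dual cells (~25,000/well) were preincubated 30 min with serially diluted compounds, then stimulated with 10 ng/mL L18-MDP (final) for 20-24 h at 37 °C. Supernatant SEAP was read with QUANTI-Blue at OD 620-655 nm after 2 h. IC50 came from non-linear fits of % inhibition versus DMSO/L18-MDP controls after media-blank subtraction.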

[3] = target: T2, GST-RIPK2 fusion protein (human RIPK2, amino acids 1-310) (Homo sapiens, UniProt O43353); experiment: RIPK2 binding competition assay (TR-FRET, Tracer 199 displacement); settings: for pIC50: 10 nM Tracer 199, 1 nM GST-RIPK2, read-out: RIPK2 IC50
T2 construct: made in house; host or cells: baculovirus infected Sf9 cells
Procedure, shortened: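 GST-RIPK2 (human aa 1-310, Sf9-expressed; final 1 nM) with Tracer 199 (final 10 nM) and Tb-anti-GST (final 0.5 nM) in Tris pH 7.5 buffer, 45 min at 22 °C. TR-FRET 665/620 nm ratio after 337 nm excitation; normalized to no-inhibitor (0%) and no-protein (−100%), giving IC50.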

T2 sequence (O43353 1-310): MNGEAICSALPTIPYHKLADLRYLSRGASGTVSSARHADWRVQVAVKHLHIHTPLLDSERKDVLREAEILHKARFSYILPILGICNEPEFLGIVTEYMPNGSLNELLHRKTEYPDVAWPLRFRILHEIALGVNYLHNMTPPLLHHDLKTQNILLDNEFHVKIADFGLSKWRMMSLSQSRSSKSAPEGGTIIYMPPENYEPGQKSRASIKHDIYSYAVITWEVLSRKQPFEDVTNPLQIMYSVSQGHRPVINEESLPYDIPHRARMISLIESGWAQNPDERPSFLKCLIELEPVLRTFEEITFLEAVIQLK
T1 sequence (O43353 1-310 limits assumed): as the sequence (O43353 1-310) above

Row | SMILES | Emax [1] [%] | pIC50 ([1]; read-out: PPI IC50 bin) | pIC50 [2] | pIC50 [3] | pIC50 ([1]; PPI IC50 bin) | IC50 ([3]; RIPK2 IC50 (nM), 10 nM Tracer 199, 1 nM GST-RIPK2) [nM]
1 | COc1cc2ncc(-c3cc(F)c(OC)c4[nH]c(CN5CC(O)C5)nc34)n2cc1S(=O)(=O)C(C)(C)C [Example 185, 1-((4-(6-(tert-butylsulfonyl)-7-methoxyimidazo[1,2-a]pyridin-3-yl)-6-fluoro-7-methoxy-1H-benzo[d]imidazol-2-yl)methyl)azetidin-3-ol] | 30 to 55 | 8.60 to 9.00 | 6.60 to 7.30 | 7.70 to 8.60 |  | 
2 | CC(C)(C)S(=O)(=O)c1cn2c(-c3cc(F)c(N)nc3F)cnc2cc1OCC(CO)C(F)(F)F (centres unmarked) [Example 57, 2-(((3-(6-amino-2,5-difluoropyridin-3-yl)-6-(tert-butylsulfonyl)imidazo[1,2-a]pyridin-7-yl)oxy)methyl)-3,3,3-trifluoropropan-1-ol] | > 80 | 7.70 to 8.60 | 6.00 to 6.60 | 7.70 to 8.60 |  | 
3 | C[C@@H](CO)Oc1cc2ncc(-c3cc(F)c(N)nc3F)n2cc1S(=O)(=O)C(C)(C)C [Example 173, (S)-2-((3-(6-amino-2,5-difluoropyridin-3-yl)-6-(tert-butylsulfonyl)imidazo[1,2-a]pyridin-7-yl)oxy)propan-1-ol] | > 80 |  | < 6.00 |  | 7.70 to 8.60 | 2.5 to 20
4 | Cc1c(-c2cnc3cc(OCCO)c(S(=O)(=O)C(C)(C)C)cn23)cnc(N)c1F [Example 50, 2-((3-(6-amino-5-fluoro-4-methylpyridin-3-yl)-6-(tert-butylsulfonyl)imidazo[1,2-a]pyridin-7-yl)oxy)ethan-1-ol] | 55 to 80 | < 7.70 | < 6.00 | < 7.70 |  | 
5 | CC(C)(C)S(=O)(=O)c1cn2c(-c3cc(F)c(N)nc3F)cnc2cc1OCCN1CCOC1=O [Example 29, 3-(2-((3-(6-amino-2,5-difluoropyridin-3-yl)-6-(tert-butylsulfonyl)imidazo[1,2-a]pyridin-7-yl)oxy)ethyl)oxazolidin-2-one] | > 80 | 7.70 to 8.60 | 6.00 to 6.60 | 7.70 to 8.60 |  | 
6 | CC(C)(C)S(=O)(=O)c1cn2c(-c3ccc4[nH]ccc4c3)cnc2cc1OCCO [Example 206, 2-((6-(tert-butylsulfonyl)-3-(1H-indol-5-yl)imidazo[1,2-a]pyridin-7-yl)oxy)ethan-1-ol] | 55 to 80 | > 9.00 | 6.60 to 7.30 | 8.60 to 9.00 |  | 
7 | CC(C)(C)S(=O)(=O)c1cc2c(-c3cc(F)c(N)nc3F)cnn2cc1OCC(O)CO (centres unmarked) [Example 246, 3-((3-(6-amino-2,5-difluoropyridin-3-yl)-5-(tert-butylsulfonyl)pyrazolo [1,5-a]pyridin-6-yl)oxy)propane-1,2-diol] | > 80 | 8.60 to 9.00 | 6.60 to 7.30 | 8.60 to 9.00 |  | 
8 | CCCS(=O)(=O)Nc1cc(-c2cnc3cc(OC)c(S(=O)(=O)C(C)(C)CO)cn23)cc(F)c1OC [Example 126, N-(3-fluoro-5-(6-((1-hydroxy-2-methylpropan-2-yl)sulfonyl)-7-methoxyimidazo[1,2-a]pyridin-3-yl)-2-methoxyphenyl)propane-1-sulfonamide] | > 80 | > 9.00 | > 7.30 | > 9.00 |  | 
9 | Cc1cc2cc(-c3cnc4cc(OCCO)c(S(=O)(=O)C(C)(C)C)cn34)cnc2[nH]1 [Example 232, 2-((6-(tert-butylsulfonyl)-3-(2-methyl-1H-pyrrolo[2,3-b]pyridin-5-yl)imidazo[1,2-a]pyridin-7-yl)oxy)ethan-1-ol] | 30 to 55 | > 9.00 | < 6.00 | 7.70 to 8.60 |  | 
10 | CCS(=O)(=O)c1cn2c(-c3cc(F)c(OC)c(NS(=O)(=O)c4cnn(C)c4)c3)cnc2cc1OC [Example 242, N-(5-(6-(ethylsulfonyl)-7-methoxyimidazo[1,2-a]pyridin-3-yl)-3-fluoro-2-methoxyphenyl)-1-methyl-1H-pyrazole-4-sulfonamide] | > 80 | > 9.00 | 6.60 to 7.30 | > 9.00 |  | 
11 | COc1cc2ncc(-c3cccc(NS(=O)(=O)C4CCC4)c3)n2cc1S(=O)(=O)C(C)(C)C [Example 152, N-(3-(6-(tert-butylsulfonyl)-7-methoxyimidazo[1,2-a]pyridin-3-yl)phenyl)cyclobutanesulfonamide] | > 80 | 7.70 to 8.60 | 6.00 to 6.60 | 7.70 to 8.60 |  | 
12 | CCCS(=O)(=O)Nc1cc(-c2cnc3cc(OC)c(S(=O)(=O)N4CCOCC4)cn23)cc(F)c1OC [Example 162, N-(3-fluoro-2-methoxy-5-(7-methoxy-6-(morpholinosulfonyl)imidazo[1,2-a]pyridin-3-yl)phenyl)propane-1-sulfonamide] | 55 to 80 | 8.60 to 9.00 | 6.60 to 7.30 | 8.60 to 9.00 |  | 
13 | C[C@@H](CO)COc1cn2ncc(-c3cc(Cl)c(N)nc3F)c2cc1S(=O)(=O)C(C)(C)C [Example 199, (S)-3-((3-(6-amino-5-chloro-2-fluoropyridin-3-yl)-5-(tert-butylsulfonyl)pyrazolo [1,5-a]pyridin-6-yl)oxy)-2-methylpropan-1-ol] | > 80 | > 9.00 | 6.60 to 7.30 | > 9.00 |  | 
14 | COc1cc2ncc(-c3cc(F)c(N)nc3F)n2cc1S(=O)(=O)C(C)(C)CCO [Example 62, 3-((3-(6-amino-2,5-difluoropyridin-3-yl)-7-methoxyimidazo[1,2-a]pyridin-6-yl)sulfonyl)-3-methylbutan-1-ol] | > 80 | 7.70 to 8.60 | 6.00 to 6.60 | 7.70 to 8.60 |  | 
15 | CC(C)(C)S(=O)(=O)c1cn2c(-c3cc(F)c(N)nc3F)cnc2cc1OC1COC1 [Example 33, 5-(6-(tert-butylsulfonyl)-7-(oxetan-3-yloxy)imidazo[1,2-a]pyridin-3-yl)-3,6-difluoropyridin-2-amine] | > 80 | 7.70 to 8.60 | < 6.00 | 7.70 to 8.60 |  | 
16 | C[C@@H](CO)COc1cn2ncc(-c3cc(F)c(N)nc3F)c2cc1S(=O)(=O)C(C)(C)C [Example 194, (S)-3-((3-(6-amino-2,5-difluoropyridin-3-yl)-5-(tert-butylsulfonyl)pyrazolo [1,5-a]pyridin-6-yl)oxy)-2-methylpropan-1-ol] | > 80 | 8.60 to 9.00 | 6.60 to 7.30 | > 9.00 |  | 
17 | CC(C)(C)S(=O)(=O)c1cn2c(-c3cc4cc[nH]c4nc3F)cnc2cc1OCCO [Example 52, 2-((6-(tert-butylsulfonyl)-3-(6-fluoro-1H-pyrrolo[2,3-b]pyridin-5-yl)imidazo[1,2-a]pyridin-7-yl)oxy)ethan-1-ol] | > 80 | > 9.00 | > 7.30 | > 9.00 |  | 
18 | COc1cc2ncc(-c3cn(C)c4ncccc34)n2cc1S(=O)(=O)C(C)(C)C [Example 99, 6-(tert-butylsulfonyl)-7-methoxy-3-(1-methyl-1H-pyrrolo[2,3-b]pyridin-3-yl)imidazo[1,2-a]pyridine] | < 30 | < 7.70 | < 6.00 | 7.70 to 8.60 |  | 
19 | COc1cc2ncc(-c3ccc4oc(N)nc4c3)n2cc1S(=O)(=O)C(C)(C)C [Example 104, 5-(6-(tert-butylsulfonyl)-7-methoxyimidazo[1,2-a]pyridin-3-yl)benzo[d]oxazol-2-amine] | 30 to 55 | < 7.70 | < 6.00 | < 7.70 |  | 
20 | COc1cc2ncc(-c3ccc4nc(N)ccc4c3)n2cc1S(=O)(=O)C(C)(C)C [Example 89, 6-(6-(tert-butylsulfonyl)-7-methoxyimidazo[1,2-a]pyridin-3-yl)quinolin-2-amine] | < 30 | < 7.70 | 6.00 to 6.60 | 7.70 to 8.60 |  | 
21 | COCCN1CCC(C)(S(=O)(=O)c2cn3c(-c4cc(F)c(N)nc4F)cnc3cc2OC)CC1 [Example 125, 3,6-difluoro-5-(7-methoxy-6-((1-(2-methoxyethyl)-4-methylpiperidin-4-yl)sulfonyl)imidazo[1,2-a]pyridin-3-yl)pyridin-2-amine] | > 80 | 7.70 to 8.60 | 6.00 to 6.60 | 7.70 to 8.60 |  | 
22 | COc1cc2ncc(-c3cccc(NS(=O)(=O)C4CN(C(=O)OC(C)(C)C)C4)c3)n2cc1S(=O)(=O)C(C)(C)C [Example 155, tert-butyl 3-(N-(3-(6-(tert-butylsulfonyl)-7-methoxyimidazo[1,2-a]pyridin-3-yl)phenyl)sulfamoyl)azetidine-1-carboxylate] | > 80 | < 7.70 | < 6.00 | < 7.70 |  | 
23 | CC(C)(C)S(=O)(=O)c1cn2c(-c3cc(Cl)c(N)nc3F)cnc2cc1OCC(F)(F)CN [Example 243, 5-(7-(3-amino-2,2-difluoropropoxy)-6-(tert-butylsulfonyl)imidazo [1,2-a]pyridin-3-yl)-3-chloro-6-fluoropyridin-2-amine] | > 80 | 8.60 to 9.00 | 6.60 to 7.30 | 8.60 to 9.00 |  | 

Source: patent US20260137706A1, “METHODS OF TREATING INFLAMMATORY DISEASES” (INTERLINE THERAPEUTICS, INC., priority 2023, published 2026)
